Laboratory results published in patent US8633315B2, “Substituted hydroxyethyl amine compounds as beta-secretase modulators and methods of use” (Amgen Inc., priority 2007, dated 2014).
Where two headings read alike, the source gives them in different places.

Columns and labels:
[1] = molecular target: CYP3A4 (CYP3A) (Homo sapiens, UniProt P08684); experiment: CYP3A inhibition assay (midazolam, pooled human liver microsomes); format: in vitro ADME; conditions: human, pooled human liver microsomes, pH 7.4, probe midazolam (printed as about […]); read-out: 3A4 IC50
[2] = Microsomal stability assay, human liver microsomes; format: in vitro ADME
Source text: (§1) Microsomal Stability Assay

[3] = system: Cells stably expressing Amyloid Precursor Protein (APP); experiment: In vitro BACE cell-based assay (HEK cell assay): Aβ40 in conditioned medium by sandwich ELISA
Method in brief: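 Secreted Aβ40 was quantified by time-resolved fluorescence sandwich ELISA, capturing with pAb40 for 3 h at 4 °C and detecting with biotinylated 6E10 for 2 h at 4 °C. Media came from APP-expressing cells exposed 24 h to compounds (10-point series from 100 or 10 μM, 0.1% DMSO); IC50 derived from percent of control.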

[4] = Microsomal stability assay, rat liver microsomes; format: in vitro ADME
Source text: as §1

[5] = molecular target: BACE1 (Homo sapiens, UniProt P56817); experiment: In vitro enzymatic BACE FRET (fluorescence resonance energy transfer) assay; format: biochemical
Method in brief: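 Fluorescence (ex 488 nm, […]) was read after Tris addition raised pH to neutral, ending a one-hour incubation. Reaction started with 50 nM fluorophore/quencher peptide substrate in pH 4.2 acetate (0.05 M) containing 100 uM genapol and 10% DMSO final.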

[6] = Homo sapiens, HEK293, 24 h, Aβ40 in conditioned medium after 24 h incubation

Chain of CYP3A4 (CYP3A) (P08684 2-503): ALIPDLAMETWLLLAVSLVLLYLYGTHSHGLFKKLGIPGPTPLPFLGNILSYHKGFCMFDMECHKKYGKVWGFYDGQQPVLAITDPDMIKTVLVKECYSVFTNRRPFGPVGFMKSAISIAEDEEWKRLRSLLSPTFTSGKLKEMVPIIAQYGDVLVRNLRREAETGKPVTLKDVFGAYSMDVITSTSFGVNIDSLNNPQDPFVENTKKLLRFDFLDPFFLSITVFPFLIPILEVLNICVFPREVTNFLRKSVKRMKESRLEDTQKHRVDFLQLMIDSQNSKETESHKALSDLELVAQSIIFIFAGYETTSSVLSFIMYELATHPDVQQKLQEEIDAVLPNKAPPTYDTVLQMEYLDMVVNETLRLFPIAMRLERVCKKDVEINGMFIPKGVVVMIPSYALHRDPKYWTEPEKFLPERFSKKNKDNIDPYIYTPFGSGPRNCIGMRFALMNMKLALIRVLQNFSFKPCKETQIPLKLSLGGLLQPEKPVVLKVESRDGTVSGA
Chain of BACE1 (P56817 46-501, species assumed): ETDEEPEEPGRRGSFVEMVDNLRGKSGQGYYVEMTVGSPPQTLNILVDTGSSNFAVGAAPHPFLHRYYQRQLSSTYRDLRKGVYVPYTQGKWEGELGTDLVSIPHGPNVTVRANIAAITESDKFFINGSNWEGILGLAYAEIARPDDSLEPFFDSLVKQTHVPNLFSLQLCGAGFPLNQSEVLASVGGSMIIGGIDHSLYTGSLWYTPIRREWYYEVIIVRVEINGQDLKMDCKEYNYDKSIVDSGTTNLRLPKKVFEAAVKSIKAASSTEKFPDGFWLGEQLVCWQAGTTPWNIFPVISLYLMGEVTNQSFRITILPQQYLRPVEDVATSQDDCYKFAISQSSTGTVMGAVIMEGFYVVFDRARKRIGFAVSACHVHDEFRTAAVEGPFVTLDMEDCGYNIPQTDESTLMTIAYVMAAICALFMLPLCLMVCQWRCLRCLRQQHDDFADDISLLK

Compound	IC50 at 10 min [1] [µM]	HLM [2] [µL/min/mg]	IC50 ([3]; Homo sapiens, HEK293) [µM]	RLM [4] [µL/min/mg]	IC50 ([5]; read-out: BACE 1 FRET assay) [µM]	IC50 [3, 6] [µM]	IC50 [5] [µM]	IC50 ([3]; Aβ40 in conditioned medium after 24 h incubation) [µM]
C=CC[C@H](NC(=O)COC)[C@H](O)CN[C@H]1CC2(CCC2)Oc2c1cc(CC(C)(C)C)nc2Nc1nccs1 [compound 236]	1.2	614	0.366	119	0.054			
C=CC[C@H](NC(=O)COC)[C@H](O)CN[C@H]1CC2(CCC2)Oc2c1cc(CC(C)(C)C)nc2Nc1ccncc1 [compound 232]	0.7	551	0.021	174	0.127			
C=CC[C@H](NC(=O)COC)[C@H](O)CN[C@H]1CC2(CCC2)Oc2c1cc(CC(C)(C)C)nc2-c1cncn1C [compound 238, N-((1S)-1-((1R)-2-(((4′S)-6′-(2,2-dimethylpropyl)-8′-(1-methyl-1H-imidazol-5-yl)-3′,4′-dihydrospiro[cyclobutane-1,2′-pyrano[2,3-c]pyridin]-4′-yl)amino)-1-hydroxyethyl)-3-buten-1-yl)-2-methoxyacetamide]	0.16	58	0.149	68	0.946			
C=CC[C@H](NC(=O)[C@@H](C)OC)[C@H](O)CN[C@H]1CC2(CCC2)Oc2c(-c3nccs3)cc(CC(C)C)cc21 [compound 210]	0.2	829	1.11	644	0.092			
COC[C@H](NC(C)=O)[C@H](O)CN[C@H]1CC2(CCC2)Oc2ncc(CC(C)(C)C)cc21 [compound 225]	27	40	0.462	14	0.48			
C=CC[C@H](NC(=O)COC)[C@H](O)CN[C@H]1CC2(CCC2)Oc2c1cc(CC(C)(C)C)nc2Nc1ccccc1 [compound 230]	3.5	345	1.38	168	0.04			
C=CC[C@H](NC(=O)COC)[C@H](O)CN[C@H]1CC2(CCC2)Oc2c1cc(CC(C)C)cc2-n1ccnc1 [compound 209]	0.1	31	0.328	183	0.338			
C=CC[C@H](NC(=O)COC)[C@H](O)CN[C@H]1CC2(CCC2)Oc2c(Br)cc(CC(C)(C)C)cc21 [compound 214]	0.9	492	2.17	247	0.044			
C=CC[C@H](NC(=O)COC)[C@H](O)CN[C@H]1CC2(CCC2)Oc2c(-c3nccs3)cc(CC(C)(C)C)cc21 [compound 215]	1	736	0.838	551	0.057			
C=CC[C@H](NC(=O)COC)[C@H](O)CN[C@H]1CC2(CCC2)Oc2c1cc(CC(C)(C)C)nc2-c1nccn1C [compound 237, N-((1S)-1-((1R)-2-(((4′S)-6′-(2,2-dimethylpropyl)-8′-(1-methyl-1H-imidazol-2-yl)-3′,4′-dihydrospiro[cyclobutane-1,2′-pyrano[2,3-c]pyridin]-4′-yl)amino)-1-hydroxyethyl)-3-buten-1-yl)-2-methoxyacetamide]	0.16	58	0.385	64	1.23			
C=CC[C@H](NC(=O)COC)[C@H](O)CN[C@H]1CC2(CCC2)Oc2c1cc(CC(C)(C)C)cc2-n1ccnc1 [Example 216, N-((1S)-1-((1R)-2-(((4S)-6-(2,2-dimethylpropyl)-8-(1H-imidazol-1-yl)-3,4-dihydrospiro[chromene-2,1′-cyclobutan]-4-yl)amino)-1-hydroxyethyl)-3-buten-1-yl)-2-methoxyacetamide]	0.2	49	0.328	150	0.442			
C#CC[C@H](NC(C)=O)[C@H](O)CNC1CC2(CCC2)Oc2c1cc(CC(C)(C)C)nc2NC (some centres unmarked) [Example 221]	1.9	61	0.058	106	0.078			
C=CC[C@H](NC(=O)COC)[C@H](O)CN[C@H]1CC2(CCC2)Oc2c(-c3ccncc3)cc(CC(C)(C)C)cc21 [compound 219]	0.1	106	0.249	360	0.17			
C=CC[C@H](NC(C)=O)[C@H](O)CN[C@H]1CC2(CCC2)Oc2c1cc(CC(C)(C)C)nc2Nc1nccs1 [compound 235]	2.7	244	0.121	100	0.031			
C=CC[C@H](NC(=O)COC)[C@H](O)CN[C@H]1CC2(CCC2)Oc2c1cc(CC(C)(C)C)nc2Nc1cccnc1 [compound 240]	0.5	551	0.345	152	0.268			
C=CC[C@H](NC(=O)COCC)[C@H](O)CN[C@H]1CC2(CCC2)Oc2ncc(CC(C)(C)C)cc21 [compound 244]	1.3	543	3.17	176	2.45			
C=CC[C@H](NC(=O)C1COC(c2cccnc2)O1)[C@H](O)CN[C@H]1CC2(CCC2)Oc2ncc(CC(C)(C)C)cc21 (stereo partly drawn) [compound 243, N-((1S)-1-((1R)-2-(((4′S)-6′-(2,2-dimethylpropyl)-3′,4′-dihydrospiro[cyclobutane-1,2′-pyrano[2,3-b]pyridin]-4′-yl)amino)-1-hydroxyethyl)-3-buten-1-yl)-2-(3-pyridinyl)-1,3-dioxolane-4-carboxamide]	0.3	601	0.982	173	2.16			
CCC[C@H](NC(=O)COC)[C@H](O)CN[C@H]1CC2(CCC2)Oc2c1cc(CC(C)(C)C)nc2NC [compound 226]	5	161	0.083	259	0.617			
C=CC[C@H](NC(C)=O)[C@H](O)CN[C@H]1CC2(CCC2)Oc2ncc(C[C@@H](C)C(F)(F)F)cc21 [Example 125, N-((1S)-1-((1R)-1-hydroxy-2-(((4′S)-6′-((2R)-3,3,3-trifluoro-2-methylpropyl)-3′,4′-dihydrospiro[cyclobutane-1,2′-pyrano[2,3-b]pyridin]-4′-yl)amino)ethyl)-3-buten-1-yl)acetamide]						0.122	0.199	
C=CC[C@H](NC(=O)c1cncs1)[C@H](O)CN[C@H]1CC2(CCC2)Oc2ncc(CC(C)(C)C)cc21 [Example 97, N-((1S)-1-((1R)-2-(((4′S)-6′-(2,2-dimethylpropyl)-3′,4′-dihydrospiro[cyclobutane-1,2′-pyrano[2,3-b]pyridin]-4′-yl)amino)-1-hydroxyethyl)-3-buten-1-yl)-1,3-thiazole-5-carboxamide]						0.201	0.061	
C=CCC(NC(C)=O)C(O)CNC1CC2(CC(O)C2)Oc2ccc(Br)cc21 [Example 117, N-((1S)-1-((1R)-2-(((2r,3′R,4S)-6-bromo-3′-hydroxy-3,4-dihydrospiro[chromene-2,1′-cyclobutan]-4-yl)amino)-1-hydroxyethyl)-3-buten-1-yl)acetamide]							0.419	1.29
C=CC[C@H](NC(C)=O)[C@H](O)CN[C@H]1CC2(CCC2)Oc2c1cc(CC(C)(C)C)nc2N(C)C [Example 45, N-((1S)-1-((1R)-2-(((4′S)-8′-(dimethylamino)-6′-(2,2-dimethylpropyl)-3′,4′-dihydrospiro[cyclobutane-1,2′-pyrano[2,3-c]pyridin]-4′-yl)amino)-1-hydroxyethyl)-3-buten-1-yl)acetamide]						6.34	0.905	
